The text below walks through data of US11814364B2, “Pyridine N-oxide derivatives useful as factor XIa inhibitors” (Janssen Pharmaceutica NV, priority 2021, dated 2023).

Molecules are shown by their SMILES. pIC50: −log10 of the molar value.

human plasma kallikrein, sequence (P03952 391-638 limits assumed): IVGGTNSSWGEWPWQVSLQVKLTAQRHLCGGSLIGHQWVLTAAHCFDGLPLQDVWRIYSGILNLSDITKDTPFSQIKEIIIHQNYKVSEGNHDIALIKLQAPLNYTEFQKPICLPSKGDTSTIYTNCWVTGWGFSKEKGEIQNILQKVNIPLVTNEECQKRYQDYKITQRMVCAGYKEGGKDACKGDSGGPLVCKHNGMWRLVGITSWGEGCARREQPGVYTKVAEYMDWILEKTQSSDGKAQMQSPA
human plasma kallikrein, sequence (P03952 20-390 partner limits assumed): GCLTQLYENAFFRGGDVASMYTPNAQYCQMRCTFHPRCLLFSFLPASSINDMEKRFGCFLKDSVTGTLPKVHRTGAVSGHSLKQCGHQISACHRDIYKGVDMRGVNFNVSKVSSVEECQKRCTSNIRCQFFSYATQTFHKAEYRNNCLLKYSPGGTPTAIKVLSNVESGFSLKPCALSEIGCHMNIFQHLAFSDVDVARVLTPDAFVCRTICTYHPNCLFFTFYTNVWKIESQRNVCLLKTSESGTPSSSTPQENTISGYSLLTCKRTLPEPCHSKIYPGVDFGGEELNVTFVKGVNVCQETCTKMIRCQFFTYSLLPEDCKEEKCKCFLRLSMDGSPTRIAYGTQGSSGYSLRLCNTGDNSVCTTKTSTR

The target in the assay is human plasma kallikrein (Homo sapiens, UniProt P03952). Description: Kallikrein inhibition FLINT assay with quenched AMC peptide substrate Z-Gly-Pro-Arg-AMC (end point EP or kinetic KIN reads). The conditions noted are these: kinetic reads at 5 min intervals over 30 min; read-out: Kallikrein (KIN) IC50. The class given is biochemical. In short, it runs like this:
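Enzyme and compound were preincubated 30 min before adding 50 μM AMC substrate in pH 7.5 Tris/NaCl/CaCl2/BSA/CHAPS buffer. AMC release was read at 30 min endpoint or every 5 min.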
A word on the pIC50: it is the negative decadic logarithm of the IC50, by convention in mol/L. `COC(=O)Nc1ccc(-c2cnn(C(Cn3cccn3)c3ccc(-c4c(-n5cnnn5)ccc(Cl)c4F)c[n+]3[O-])c2)cc1` (single isomer, unassigned) [Example P273]: the pIC50 is 7.96. The result for `[O-][n+]1cc(-c2c(-n3cnnn3)ccc(Cl)c2F)ccc1C(CC1CC1)n1cc(-c2ccnn2C(F)F)cn1` (stereo not drawn) [Example P542] reads 6.52; that for `O=C(O)C1CCCN(C(=O)C2CC2CC(c2ccc(-c3c(-n4cnnn4)ccc(Cl)c3F)c[n+]2[O-])n2cc(-c3ccccc3)cn2)C1` (stereo not drawn) [Example P223], 6.10; that for `Cn1ccc(C[C@H](c2ccc(-c3c(-n4cc(C(F)(F)F)nn4)ccc(Cl)c3F)c[n+]2[O-])n2cc(-c3ccc(C(=O)O)cc3)cn2)n1` [Example P855], 8.43. The result for `COc1ccc(CC(c2ccc(-c3c(-n4cnnn4)ccc(Cl)c3F)c[n+]2[O-])n2cc(-c3ccc(C(=O)NC4CC4)cc3)cn2)cc1` (stereo not drawn) [Example P135] reads 7.97; that for `NC(=O)COc1ccc(CC(c2ccc(-c3cc(Cl)ccc3-n3cnnn3)c[n+]2[O-])n2cc(-c3ccc(C(=O)O)cc3)cn2)cc1` (stereo not drawn) [Example P138], 8.39; that for `NC(=O)c1ccn(CC(c2ccc(-c3c(-n4cnnn4)ccc(Cl)c3F)c[n+]2[O-])n2cc(-c3ccncc3)cn2)n1` (stereo not drawn) [Example P443], 8.77. `CC(C)n1nncc1-c1cnn(C(CCOC(F)F)c2ccc(-c3c(-n4cc(C(F)(F)F)nn4)ccc(Cl)c3F)c[n+]2[O-])c1` (stereo not drawn) [Example P803]: the negative logarithm of the IC50 (pIC50) was approximately 7.03. Turning to `NC(=O)c1ccc(-c2cnn(C(Cc3ccn(C(F)F)n3)c3ccc(-c4c(-n5cc(C(F)(F)F)nn5)ccc(Cl)c4F)c[n+]3[O-])c2)cc1` (single isomer, unassigned) [Example P908], the pIC50 was 9.52. Take `COc1cc(C(CC2CC2)n2cc(-c3cnn(C(C)C)c(=O)c3)cn2)[n+]([O-])cc1-c1c(-n2cnnn2)ccc(Cl)c1F` (stereo not drawn) [Example P161]: the pIC50 is 7.12. On to `O=C(O)c1ccc(-c2cnn(C(CN3CCCC3=O)c3ccc(-c4c(C(F)F)ccc(Cl)c4F)c[n+]3[O-])c2)cc1` (single isomer, unassigned) [Example Q15], for which the negative-log IC50 (pIC50) was 6.42.

In the case of `Cn1ncc(F)c1-c1cnn([C@H](CCOC(F)F)c2ccc(-c3c(-n4cc(Cl)nn4)ccc(Cl)c3F)c[n+]2[O-])c1` [Example P680], the pIC50 was 7.54.

Regarding `O=C1CCCN1CC(c1ccc(-c2c(-n3cnnn3)ccc(Cl)c2F)c[n+]1[O-])n1cc(-c2cc[n+]([O-])c(C(F)F)c2)cn1` (stereo not drawn) [Example P365], the pIC50 was 7.52. As for `[O-][n+]1cc(-c2c(-n3cnnn3)ccc(Cl)c2F)ccc1[C@H](Cc1ccc(F)cc1)n1cc(-c2ccnn2C(F)F)cn1` [Example P566], the pIC50 is 7.17. `COc1cc(C(CC2CC2C(=O)N2CCCCC2)n2cc(-c3ccc(N)nc3C)cn2)[n+]([O-])cc1-c1c(-n2cnnn2)ccc(Cl)c1F` (stereo not drawn) [Example P248]: the pIC50 was 7.83.

Take `Cn1ccc(C[C@H](c2ccc(-c3cc(Cl)ccc3C#N)c[n+]2[O-])n2cc(-c3ccc(C(=O)O)cc3)cn2)n1` [Example Q47]: the pIC50 is 7.24. `Cc1cc(-c2cnn(C(CCOC(F)F)c3ccc(-c4c(-n5cnnn5)ccc(Cl)c4F)c[n+]3[O-])c2)ccn1` (stereo not drawn) [Example P307]: the pIC50 was 8.11. With `COC(=O)N(C)CC(c1ccc(-c2c(-n3cnnn3)ccc(Cl)c2F)c[n+]1[O-])n1cc(-c2ccnc(C(F)(F)F)c2)cn1` (single isomer, unassigned) [Example P381], the pIC50 was 7.44. `Cn1ccc(CC(c2ccc(-c3c(-n4cnnn4)ccc(Cl)c3F)c[n+]2[O-])n2cc(-c3ccnc(C(F)(F)F)c3)cn2)n1` (stereo not drawn) [Example P377]: the pIC50 was 8.68.

Consider `Cn1ncc(-c2cnn(C(Cc3ccc(F)cc3)c3ccc(-c4c(-n5cnnn5)ccc(Cl)c4F)c[n+]3[O-])c2)cc1=O` (stereo not drawn) [Example P116], for which the pIC50 is 7.58. Turning to `COC(=O)Nc1ccc(-c2cnn(C(Cc3ccn(C)n3)c3ccc(-c4c(-n5cnnn5)ccc(Cl)c4F)c[n+]3[O-])c2)cc1` (single isomer, unassigned) [Example P329], the pIC50 was 7.30.
